Laboratory results from PubChem BioAssay (NCI).
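Assay format: 96-well plates, 48-hour exposure. TGI marks complete inhibition of growth.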

Columns and labels:
Assay in all cases: inhibition of tumour cell growth, NCI panel, 48 h
[1] = tested on: MOLT-4 leukemia
[2] = tested on: SK-MEL-5 melanoma
[3] = tested on: BT-549 breast
[4] = tested on: HCT-116 colon
[5] = tested on: IGROV1 ovarian
[6] = tested on: HL-60(TB) leukemia
[7] = tested on: RPMI-8226 leukemia
[8] = tested on: NCI-H23 lung
[9] = tested on: SK-MEL-2 melanoma
[10] = tested on: COLO 205 colon
[11] = tested on: SNB-19 CNS
[12] = tested on: MALME-3M melanoma
[13] = tested on: CCRF-CEM leukemia
[14] = tested on: HOP-62 NSCLC
[15] = tested on: NCI-H522 lung
[16] = tested on: UACC-257 melanoma
[17] = tested on: NCI-H226 lung
[18] = tested on: TK-10 renal
[19] = tested on: SK-MEL-28 melanoma
[20] = tested on: OVCAR-4 ovarian
[21] = tested on: HCC-2998 colon
[22] = tested on: HOP-92 NSCLC
[23] = tested on: U251 CNS
[24] = tested on: KM12 colon
[25] = tested on: OVCAR-3 ovarian
[26] = tested on: HT29 colon
[27] = tested on: DU-145 prostate
[28] = tested on: HCT-15 colon
[29] = tested on: ACHN renal
[30] = tested on: A549 NSCLC
[31] = tested on: SNB-75 CNS
[32] = tested on: NCI/ADR-RES ovarian
[33] = tested on: K-562 leukemia
[34] = tested on: SR leukemia
[35] = tested on: SN12C renal
[36] = tested on: EKVX NSCLC
[37] = tested on: LOX IMVI melanoma
[38] = tested on: MDA-MB-435
[39] = tested on: T-47D breast
[40] = tested on: UO-31 renal
[41] = tested on: OVCAR-8 ovarian
[42] = tested on: RXF 393 renal
[43] = tested on: CAKI-1 renal
[44] = tested on: MDA-MB-231 breast
[45] = tested on: SF-539 CNS
[46] = tested on: A498 renal
[47] = tested on: SF-268 CNS
[48] = tested on: MCF7 breast
[49] = tested on: M14 melanoma
[50] = tested on: MDA-N
[51] = tested on: OVCAR-5 ovarian
[52] = tested on: SF-295 CNS
[53] = tested on: SW-620 colon
[54] = tested on: HS 578T breast
[55] = tested on: NCI-H460 lung
[56] = tested on: 786-0 renal
[57] = tested on: SK-OV-3 ovarian
[58] = tested on: PC-3 prostate
[59] = tested on: UACC-62 melanoma

CC1C(c2ccc3c(c2)OCO3)c2cc3c(cc2OC1N1CCOCC1)OCO3 (stereo not given)
TGI [1]: 66.9 µM | TGI [2]: 42.7 µM | TGI [3]: > 100 µM | TGI [4]: 47.3 µM | TGI [5]: > 100 µM | TGI [6]: > 62.2 µM | TGI [7]: 61.6 µM | TGI [8]: > 100 µM | TGI [9]: 58.8 µM | TGI [10]: 47.4 µM | TGI [11]: 86.5 µM | TGI [12]: 97.6 µM | TGI [13]: 73.3 µM | TGI [14]: 78.6 µM | TGI [15]: 31.1 µM | TGI [16]: > 100 µM | TGI [17]: 81.7 µM | TGI [18]: > 100 µM | TGI [19]: > 46.4 µM | TGI [20]: > 100 µM | TGI [21]: 65.6 µM | TGI [22]: 78.4 µM | TGI [23]: > 83.8 µM | TGI [24]: 94.2 µM | TGI [25]: > 93.8 µM | TGI [26]: > 85 µM | TGI [27]: > 100 µM | TGI [28]: > 93.7 µM | TGI [29]: > 100 µM | TGI [30]: > 100 µM | TGI [31]: 99.3 µM | TGI [32]: 60.6 µM | TGI [33]: 67.7 µM | TGI [34]: > 80.2 µM | TGI [35]: > 100 µM | TGI [36]: > 100 µM | TGI [37]: 60.2 µM | TGI [38]: 27.6 µM | TGI [39]: > 100 µM | TGI [40]: 85 µM | TGI [41]: > 100 µM | TGI [42]: 51.9 µM | TGI [43]: > 82.7 µM | TGI [44]: > 100 µM | TGI [45]: 49.5 µM | TGI [46]: 65.6 µM | TGI [47]: > 100 µM | TGI [48]: 65.8 µM | TGI [49]: 76.9 µM | TGI [50]: 29.1 µM | TGI [51]: > 100 µM | TGI [52]: > 93 µM | TGI [53]: > 100 µM | TGI [54]: 55.2 µM | TGI [55]: > 80.1 µM | TGI [56]: > 100 µM | TGI [57]: > 100 µM | TGI [58]: > 100 µM | TGI [59]: 69.5 µM

O=[N+]([O-])c1ccc(CSCc2ccc(Cl)cc2)cc1
TGI [1]: > 100 µM | TGI [2]: > 100 µM | TGI [3]: > 100 µM | TGI [4]: > 100 µM | TGI [5]: > 100 µM | TGI [6]: > 100 µM | TGI [7]: > 100 µM | TGI [8]: > 100 µM | TGI [9]: > 100 µM | TGI [10]: > 100 µM | TGI [11]: > 100 µM | TGI [12]: > 100 µM | TGI [13]: 38.7 µM | TGI [14]: > 100 µM | TGI [15]: > 100 µM | TGI [16]: > 100 µM | TGI [17]: > 100 µM | TGI [18]: > 100 µM | TGI [19]: > 100 µM | TGI [20]: > 100 µM | TGI [22]: > 100 µM | TGI [23]: > 100 µM | TGI [24]: > 100 µM | TGI [25]: > 100 µM | TGI [26]: > 100 µM | TGI [27]: > 100 µM | TGI [28]: > 100 µM | TGI [29]: > 100 µM | TGI [30]: > 100 µM | TGI [31]: > 100 µM | TGI [32]: > 100 µM | TGI [33]: > 100 µM | TGI [34]: > 100 µM | TGI [35]: > 100 µM | TGI [36]: > 100 µM | TGI [37]: > 100 µM | TGI [38]: > 100 µM | TGI [39]: > 100 µM | TGI [40]: > 100 µM | TGI [41]: > 100 µM | TGI [42]: > 100 µM | TGI [43]: > 100 µM | TGI [44]: > 100 µM | TGI [45]: > 100 µM | TGI [46]: > 100 µM | TGI [47]: > 100 µM | TGI [48]: > 100 µM | TGI [49]: > 100 µM | TGI [50]: > 100 µM | TGI [51]: > 100 µM | TGI [52]: > 100 µM | TGI [53]: > 100 µM | TGI [54]: > 100 µM | TGI [55]: > 100 µM | TGI [56]: > 100 µM | TGI [57]: > 100 µM | TGI [58]: > 100 µM | TGI [59]: > 100 µM

CCc1nc2cc3cccnc3c(Cl)c2[nH]c1=O
TGI [1]: > 100 µM | TGI [2]: > 100 µM | TGI [3]: > 100 µM | TGI [4]: > 100 µM | TGI [5]: > 100 µM | TGI [6]: > 100 µM | TGI [7]: > 100 µM | TGI [8]: > 100 µM | TGI [9]: > 100 µM | TGI [10]: > 100 µM | TGI [11]: > 100 µM | TGI [12]: > 100 µM | TGI [13]: > 100 µM | TGI [14]: > 100 µM | TGI [15]: > 100 µM | TGI [16]: > 100 µM | TGI [17]: > 100 µM | TGI [18]: > 100 µM | TGI [19]: > 100 µM | TGI [20]: > 100 µM | TGI [21]: > 100 µM | TGI [22]: > 100 µM | TGI [23]: > 100 µM | TGI [24]: > 100 µM | TGI [25]: > 100 µM | TGI [26]: > 100 µM | TGI [27]: > 100 µM | TGI [28]: > 100 µM | TGI [29]: > 100 µM | TGI [30]: > 100 µM | TGI [31]: 50.4 µM | TGI [32]: > 100 µM | TGI [33]: > 100 µM | TGI [34]: > 100 µM | TGI [35]: > 100 µM | TGI [36]: > 100 µM | TGI [37]: > 100 µM | TGI [38]: > 100 µM | TGI [39]: > 100 µM | TGI [40]: > 100 µM | TGI [41]: > 100 µM | TGI [42]: 91.1 µM | TGI [43]: > 100 µM | TGI [44]: > 100 µM | TGI [46]: > 100 µM | TGI [47]: > 100 µM | TGI [48]: > 100 µM | TGI [49]: > 100 µM | TGI [50]: > 100 µM | TGI [51]: > 100 µM | TGI [52]: > 100 µM | TGI [53]: > 100 µM | TGI [54]: > 100 µM | TGI [55]: > 100 µM | TGI [56]: > 100 µM | TGI [57]: > 100 µM | TGI [58]: > 100 µM | TGI [59]: > 100 µM
